Laboratory results: PubChem BioAssay (NCI)
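Grown in 96-well plates, cells were treated for 48 hours with each compound at five concentrations. Insufficient inhibition: endpoint recorded as highest concentration tested. Definition used: TGI = concentration required for complete inhibition of growth.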 Where a SMILES comes first, the peptide text is derived from it. Bridges are numbered along the chain shown (N, C = ends). [ ]: non-standard residue; d: D form. Aib = CC(C)(N)C(=O)O; βAla = NCCC(=O)O

Columns and labels:
Assay in all cases: DTP human tumour cell line panel, 48 h
EKVX NSCLC = tested on: EKVX NSCLC
K-562 leukemia = tested on: K-562 leukemia
LOX IMVI melanoma = tested on: LOX IMVI melanoma
M14 melanoma = tested on: M14 melanoma
MCF7 breast = tested on: MCF7 breast
NCI/ADR-RES ovarian = tested on: NCI/ADR-RES ovarian
OVCAR-3 ovarian = tested on: OVCAR-3 ovarian
OVCAR-4 ovarian = tested on: OVCAR-4 ovarian
SW-620 colon = tested on: SW-620 colon
TK-10 renal = tested on: TK-10 renal
UACC-257 melanoma = tested on: UACC-257 melanoma
UO-31 renal = tested on: UO-31 renal

| Compound | TGI (EKVX NSCLC) [µM] | TGI (K-562 leukemia) [µM] | TGI (LOX IMVI melanoma) [µM] | TGI (M14 melanoma) [µM] | TGI (MCF7 breast) [µM] | TGI (NCI/ADR-RES ovarian) [µM] | TGI (OVCAR-3 ovarian) [µM] | TGI (OVCAR-4 ovarian) [µM] | TGI (SW-620 colon) [µM] | TGI (TK-10 renal) [µM] | TGI (UACC-257 melanoma) [µM] | TGI (UO-31 renal) [µM] |
| --- | --- | --- | --- | --- | --- | --- | --- | --- | --- | --- | --- | --- |
| O=C(O)c1ccccc1C(=O)NCC1S(=O)(=O)OCCOS1(=O)=O | > 100 | > 100 | > 100 | > 100 | > 100 | > 100 | > 100 | > 100 | > 100 | > 100 | > 100 | > 100 |
| CC1=C(C#N)C(=C(C#N)C#N)OC1(C)Cc1ccccc1 (configuration not stated) | > 100 | > 100 | 41 | > 100 | > 100 | > 100 | 74.9 | 60.3 | > 100 | > 100 | > 100 | 37 |
| Cc1ccc([N+](=O)[O-])cc1S(=O)(=O)Nc1ccc(C2=NN(S(=O)(=O)c3cc([N+](=O)[O-])ccc3C)C(c3ccccc3)C2)cc1 (configuration not stated) | > 100 | > 100 | > 100 | 98.1 | > 100 | 81.1 | 89.4 | > 100 | > 100 | > 100 | 74.7 | > 100 |
| CCOC(=O)c1cc(C2CCN(c3ccccc3)C2=O)c(/C(O)=C/C(C)=O)[nH]1 (configuration not stated) | > 100 | > 100 | > 100 | > 100 | > 100 | > 100 | > 100 | > 100 | > 100 | > 100 | > 100 | > 100 |
| Cc1ccc(C)n1-c1ccccc1C1C=Cn2c(=O)nnc3c(OC(C)C)c(OC(C)C)c(O)c1c32 (configuration not stated) | > 100 | > 100 | > 100 | > 100 | > 100 | > 100 | > 100 | > 100 | 42.3 | > 100 | > 100 | > 100 |
| CN1C(=O)C2(C)SC1(c1ccccc1)C1C(=O)N(c3ccccc3)C(=O)C12 (configuration not stated) | > 100 | > 100 | > 100 | > 100 | > 100 | > 100 | > 100 | > 100 | > 100 | > 100 | 93.3 | > 100 |
| Cc1c(C)c2ccc(OCC(O)COC(C)C)c(C)c2oc1=O (configuration not stated) | > 100 | 71.4 | 42.2 | 42 | 50.1 | > 100 | > 100 | > 10 | 93.1 | 62.3 | 43.4 | > 100 |
| CC1(C)NC(=O)C(NC(=O)C(N)CC(=O)O)CCCCNC(=O)CCNC1=O (configuration not stated) (H-DK[Aib][βAla]; lactam 2-C; configuration not given here) | > 100 | > 100 | > 100 | > 100 | > 100 | > 100 | > 100 | > 100 | > 100 | > 100 | > 100 | > 100 |
| CC1=NN(c2cccc(Cl)c2)C2(SCC(=O)N2c2nc3ccccc3s2)C1=CC=Cc1ccccc1 (configuration not stated) | > 100 | > 100 | > 100 | > 100 | > 100 | > 100 | > 100 | > 100 | > 100 | > 100 | > 100 | > 100 |
| CCOC1OC(COC(=O)C(C)(C)C)C(O)CC1n1cc(C)c(=O)[nH]c1=O (configuration not stated) | > 100 | > 100 | > 100 | > 100 | > 100 | > 100 | > 100 | > 100 | > 100 | > 100 | > 100 | > 100 |
| CC[C@]12C=CCN3CC[C@@]4(c5cc(N=O)c(OC)cc5N(C)[C@H]4[C@@](O)(C(=O)OC)[C@@H]1OC(C)=O)[C@@H]32 | > 100 | > 100 | > 100 | > 100 | > 100 | > 100 | > 100 | > 100 | > 100 | > 100 | > 100 | > 100 |
| COC(=O)CCC(=O)c1ccc2c(c1)CCC2 | > 100 | > 100 | > 100 | > 100 | > 100 | > 100 | > 100 | > 100 | > 100 | > 100 | > 100 | > 100 |
| COc1ccc2c(c1)Cc1c(NCCN(C)C)ccc(C(=O)NCCCN(C)CCCNC(=O)c3ccc(NCCN(C)C)c4c3Nc3ccc(OC)cc3C4)c1N2 | 0.643 | 3.14 | 0.766 | 1.79 | 0.615 | > 100 | 1.21 | 0.448 | 8.65 | 4.88 | 1.1 | 14.2 |
| C[C@H](C1CC(C)(O)C(C)(O)C(O)O1)[C@H]1CC[C@H]2[C@@H]3[C@@H]4O[C@@H]4[C@@]4(O)CC=CC(=O)[C@]4(C)[C@H]3CC[C@]12C (some centres not stated) | > 50 | > 50 | > 50 | > 50 | > 50 | > 50 | > 50 | > 50 | > 50 | > 50 | > 50 | > 50 |
| OC1(C(Sc2cc(C(F)(F)F)cc(C(F)(F)F)c2)Sc2cc(C(F)(F)F)cc(C(F)(F)F)c2)C=CCCC1 (configuration not stated) | 6.78 | 5.42 | 5.9 | 6.53 | 4.58 | 10.1 | 6.14 | 7.06 | 7.74 | 3.8 | 3.56 | 3.66 |
| O=c1nc2n3c4c(cccc4nc-2c(=O)[nH]1)CCC3 | > 100 | > 100 | > 100 | > 100 | > 100 | > 100 | > 100 | > 100 | > 100 | > 100 | > 100 | > 100 |
| COC(=O)[C@]12CC3C=CC1N(C3)C(CBr)c1c2n(S(=O)(=O)c2ccccc2)c2ccccc12 (some centres not stated) | > 100 | 0.314 | > 100 | > 100 | > 100 | > 100 | > 100 | > 100 | > 100 | > 100 | > 100 | > 100 |
| CC(C)[N+]([O-])(CCCNc1c2ccccc2nc2cccc([N+](=O)[O-])c12)C(C)C | 0.528 | > 100 | 0.427 | 0.305 | 14.9 | 8.76 | 1.07 | 0.433 | 4.9 | 1.4 | 0.333 | 1.35 |
| CC(=O)c1nc2ccccc2n1C(C)C(=O)c1ccccc1 (configuration not stated) | > 100 | > 100 | > 100 | > 100 | > 100 | > 100 | > 100 | > 100 | > 100 | > 100 | > 100 | > 100 |
| Cc1cc(S(=O)(=O)Nc2n[nH]c(-c3ccc(Cl)cc3)n2)c(SSc2cc(Cl)c(C)cc2S(=O)(=O)Nc2n[nH]c(-c3ccc(Cl)cc3)n2)cc1Cl | 89.6 | 62.3 | 64.3 | > 100 | > 100 | > 100 | 85.1 | > 100 | 73.5 | > 100 | > 100 | 81.9 |
| CCOC(=O)c1nc2cc(C(F)(F)F)ccc2nc1Oc1ccc(C#N)cc1 | > 100 | > 100 | > 100 | > 100 | > 100 | > 100 | > 100 | > 100 | > 100 | > 100 | > 100 | > 100 |
